In article PMC9236245, “Glycyrrhiza uralensis promote the metabolism of toxic components of Aconitum carmichaeli by CYP3A and alleviate the development of chronic heart failure” (PLoS ONE, 2022):
“And” between values parts separate entries of the source, which are not always exact repeats. Identical values can stand only once.

Assays:
[1] = Metabolic stability (t1/2, CLint) of AC, MA and HA in RLMs of pretreated rats; settings: for microsomal CLint at 25 µM / half-life at 25 µM: SD, rat, microsomes
[2] = Plasma concentration of AC, MA and HA in rats by LC-MS/MS; format: in vivo, rat; parameters: Plasma concentration: unit not given here; settings: for plasma concentration with compatibility of Glycyrrhizae and Aconitum vs Aconitum alone: 2 mL/kg by gavage; for Plasma concentration: single animals
Procedure: 12 SD rats were randomly divided into Aconitum and Glycyrrhizae combind with Aconitum group, 6 rats in each group, 2 mL / kg was given by gavage respectively.

in vitro = settings: SD, rat, microsomes
[3] = Metabolism of AC, MA and HA in rat liver microsomes by HPLC; format: in vitro ADME; settings: NADPH
Procedure: Agilent C18 column (4.60 mm × 150 mm, 5μm), mobile phase A was 20 mmol / L ammonium acetate and 0.1% formic acid aqueous solution, mobile phase B was methanol, isocratic elution, A: B = 60:40, flow rate was 1 ml / min, detection wavelength was 240 nm, column temperature was 30°C, injection volume was 20 μL.
(§1) 1 mg / ML microsome 100 μL, PBS 75 μL and aconitine alkaloids 5 μL (AC, MA and HA: 1 mmol / L) were added. 20 μL NADPH (10 mmol / L) was added to start the reactionand, AC and HA were incubated for 90 min, MA were incubated for 120 min. The reaction was terminated by adding 200 μL glacial acetonitrile, 12 000 r / min at 4°C for 10 min, and 20 μL supernatant was used for HPLC.

CYP450 = assay: Effect of CYP450 inhibitors on metabolism of AC, MA and HA in rat liver microsomes; format: in vitro ADME; settings: RLMs
Procedure: as §1
Added microsome 100 μL, PBS 75 μL, aconitine alkaloids 5 μL, inhibitors (furatheophylline: 0.2 mmol / L, sulfabendazole: 0.4 mmol / L, quinidine: 0.1 mmol / L, ketoconazole: 0.04 mmol / L) 10 μL. The operation of HPLC was as above. The effect of CYP450 inhibitors on the metabolism of Aconitum alkaloids was calculated. The formula is as follows:
% inhibition = Peak area of X after adding inhibitor / Peak area of X before adding inhibitor × 100%, where X is metabolites of AC, MA and HA.

[4] = RLMs of rats pretreated with Glycyrrhizae 0.33 g/kg
[5] = RLMs of rats pretreated with Glycyrrhizae 1 g/kg
[6] = RLMs of rats pretreated with Glycyrrhizae 3 g/kg
[7] = RLMs of rats pretreated with Phenobarbital 0.08 g/kg
[8] = Aconitum 2 mL/kg gavage, 10 min
[9] = Aconitum 2 mL/kg gavage, 20 min
[10] = Aconitum 2 mL/kg gavage, 30 min
[11] = Aconitum 2 mL/kg gavage, 45 min
[12] = Aconitum 2 mL/kg gavage, 60 min
[13] = Aconitum 2 mL/kg gavage, 90 min
[14] = Aconitum 2 mL/kg gavage, 120 min
[15] = Aconitum 2 mL/kg gavage, 240 min
[16] = Aconitum 2 mL/kg gavage, 360 min
[17] = Aconitum 2 mL/kg gavage, 480 min
[18] = Glycyrrhizae + Aconitum 2 mL/kg gavage, 10 min
[19] = Glycyrrhizae + Aconitum 2 mL/kg gavage, 20 min
[20] = Glycyrrhizae + Aconitum 2 mL/kg gavage, 30 min
[21] = Glycyrrhizae + Aconitum 2 mL/kg gavage, 45 min
[22] = Glycyrrhizae + Aconitum 2 mL/kg gavage, 60 min
[23] = Glycyrrhizae + Aconitum 2 mL/kg gavage, 90 min
[24] = Glycyrrhizae + Aconitum 2 mL/kg gavage, 120 min
[25] = Glycyrrhizae + Aconitum 2 mL/kg gavage, 240 min
[26] = Glycyrrhizae + Aconitum 2 mL/kg gavage, 360 min
[27] = Glycyrrhizae + Aconitum 2 mL/kg gavage, 480 min
[28] = t1/2, RLMs of rats pretreated with Glycyrrhizae 0.33 g/kg
[29] = t1/2, RLMs of rats pretreated with Glycyrrhizae 1 g/kg
[30] = t1/2, RLMs of rats pretreated with Glycyrrhizae 3 g/kg
[31] = t1/2, RLMs of rats pretreated with Phenobarbital 0.08 g/kg
[32] = AC 90 min, ketoconazole stock 0.04 mmol/L
[33] = MA 120 min, ketoconazole stock 0.04 mmol/L

| SMILES | plasma concentration with compatibility of Glycyrrhizae and Aconitum vs Aconitum alone [2] | Plasma concentration [2, 8] | Plasma concentration [2, 9] | Plasma concentration [2, 10] | Plasma concentration [2, 11] | Plasma concentration [2, 12] | Plasma concentration [2, 13] | Plasma concentration [2, 14] | Plasma concentration [2, 15] | Plasma concentration [2, 16] | Plasma concentration [2, 17] | Plasma concentration [2, 18] | Plasma concentration [2, 19] | Plasma concentration [2, 20] | Plasma concentration [2, 21] | Plasma concentration [2, 22] | Plasma concentration [2, 23] | Plasma concentration [2, 24] | Plasma concentration [2, 25] | Plasma concentration [2, 26] | further results |
| --- | --- | --- | --- | --- | --- | --- | --- | --- | --- | --- | --- | --- | --- | --- | --- | --- | --- | --- | --- | --- | --- |
| COC[C@]12CN(C)[C@@H]3[C@@H]4[C@H](OC)[C@H]1[C@@]3([C@@H](OC)C[C@H]2O)[C@@H]1C[C@@]2(O)[C@H](OC(=O)c3ccccc3)[C@@H]1[C@]4(OC(C)=O)[C@@H](O)[C@@H]2OC [MA, mesaconitine] | significantly lower | 0.104 and 0.259 and 0.0838 and 0.0908 and 0.0264 | 0.112 and 0.306 and 0.0799 and 0.129 and 0.0672 | 0.141 (2×) and 0.315 and 0.127 and 0.051 | 0.131 and 0.358 and 0.138 and 0.0993 and 0.054 | 0.209 and 0.452 and 0.123 and 0.0971 and 0.0527 | 0.212 and 0.258 and 0.0872 and 0.0822 and 0.0482 | 0.151 and 0.279 and 0.0558 and 0.0592 and 0.0337 | 0.067 and 0.0621 and 0.0139 and 0.0294 and 0.00782 | 0.0249 and 0.0364 and 0 (2×) and 0.0208 | 0.00513 and 0 (4×) | 0.0924 and 0.061 and 0.0433 and 0.0157 and 0.04 | 0.0183 and 0.062 and 0.0517 and 0.0185 and 0.0482 | 0.0382 and 0.0796 and 0.0589 and 0.0258 and 0.0568 | 0.0446 and 0.0702 and 0.0601 and 0.0125 and 0.0651 | 0.0304 and 0.0692 and 0.0418 and 0.0207 and 0.0668 | 0.038 and 0.0469 and 0.0364 and 0.0228 and 0.0572 | 0.0276 and 0.0368 and 0.0358 and 0.0326 and 0.0683 | 0.00794 and 0.0109 and 0.0106 and 0.00771 and 0.0278 | 0.00417 and 0.00296 and 0 and 0.0025 and 0.0106 | CLint ([1]; RLMs of Control rats): 16.00±0.40 μL/min/mg protein; t1/2 ([1]; RLMs of Control rats): 2.8887 ± 0.0722 h; CLint [1, 4]: 17.73±0.23 μL/min/mg protein; t1/2 [1, 4]: 2.6055 ± 0.0337 h; CLint [1, 5]: 18.80±0.04 μL/min/mg protein; t1/2 [1, 5]: 2.4582 ± 0.0522 h; CLint [1, 6]: 17.87±0.83 μL/min/mg protein; t1/2 [1, 6]: 2.5895 ± 0.118 h; CLint [1, 7]: 19.60±0.40 μL/min/mg protein; t1/2 [1, 7]: 2.358 ± 0.048 h; Plasma concentration [2, 27]: 0 |
| COC[C@@]12CC[C@H](OC)[C@]34C(C([C@H](OC)[C@H]13)[C@]1(OC(C)=O)[C@H]3[C@@H](OC(=O)c5ccccc5)[C@](O)(C[C@H]34)[C@@H](OC)[C@@H]1O)N(C)C2 [HA, hypaconitine] | significantly lower | 0.964 and 1.77 and 0.583 and 0.492 and 0.28 | 1.07 (2×) and 1.95 and 0.668 and 0.566 | 1.2 and 2.66 and 1.06 and 0.923 and 0.551 | 1.22 and 2.65 and 1.35 and 0.88 and 0.451 | 1.83 and 3.39 and 1.29 and 0.737 and 0.573 | 2.02 and 2.54 and 1.07 and 0.724 and 0.474 | 1.44 and 2.32 and 0.775 and 0.501 and 0.434 | 0.658 and 0.936 and 0.168 and 0.375 and 0.151 | 0.287 and 0.417 and 0.0407 and 0.175 and 0.0302 | 0.104 and 0.179 and 0.00087 and 0.0398 and 0 | 0.519 and 1.06 and 0.945 and 0.416 and 0.07 | 0.52 and 1.66 and 1.4 and 0.661 and 0.18 | 0.774 and 1.59 and 1.79 and 1.06 and 0.53 | 1.02 and 1.61 and 1.74 and 0.809 and 0.75 | 1.15 and 1.58 and 1.52 and 0.84 and 0.77 | 0.845 and 1.4 and 1.33 and 0.925 and 0.66 | 0.763 and 1.16 and 1.07 and 0.744 and 0.75 | 0.288 and 0.492 and 0.287 and 0.316 and 0.924 | 0.34 and 0.239 and 0.0767 and 0.225 and 0.0462 | microsomal CLint (in vitro; RLMs of Control rats): 10.5 ± 0.23 µL/min/mg; microsomal CLint (in vitro; [4]): 12.1 ± 0.23 µL/min/mg; microsomal CLint (in vitro; [5]): 13.6 ± 0.4 µL/min/mg; microsomal CLint (in vitro; [6]): 11.6 ± 0.4 µL/min/mg; microsomal CLint (in vitro; [7]): 14 ± 0.4 µL/min/mg; half-life (in vitro; t1/2, RLMs of Control rats): 4.39 ± 0.095 h; half-life (in vitro; [28]): 3.81 ± 0.0717 h; half-life (in vitro; [29]): 3.4 ± 0.1 h; half-life (in vitro; [30]): 3.99 ± 0.138 h; half-life (in vitro; [31]): 3.3 ± 0.0943 h; Plasma concentration [2, 27]: 0 and 0.104 and 0.0428 and 0.0921 and 0.181; metabolites produced in RLMs [3]: two metabolites |
| Cc1nc2c([nH]1)c(=O)n(C)c(=O)n2Cc1ccco1 [furaphylline] |  |  |  |  |  |  |  |  |  |  |  |  |  |  |  |  |  |  |  |  | effect on the metabolism of AC, MA and HA (CYP450; stock 0.2 mmol/L): no significant effect |
| CCN1C[C@]2(COC)[C@H](O)C[C@H](OC)[C@@]34[C@@H]5C[C@@]6(O)[C@H](OC(=O)c7ccccc7)[C@@H]5[C@@](OC(C)=O)([C@@H]([C@H](OC)[C@H]23)[C@@H]14)[C@@H](O)[C@@H]6OC [AC, aconitine] | significantly lower | 0.0562 and 0.0808 and 0.0292 and 0.0385 and 0.0141 | 0.0945 and 0.121 and 0.0589 and 0.0443 and 0.0407 | 0.0925 and 0.117 and 0.0557 and 0.0722 and 0.05 | 0.118 and 0.156 and 0.082 and 0.0566 and 0.0273 | 0.13 and 0.176 and 0.0973 and 0.0545 and 0.0474 | 0.143 and 0.138 and 0.108 and 0.0529 and 0.0439 | 0.0793 and 0.127 and 0.0603 and 0.0355 and 0.024 | 0.0629 and 0.0516 and 0.0251 and 0.0305 and 0.0211 | 0.0287 and 0.0253 and 0.00749 and 0.0187 and 0.0173 | 0.0164 and 0.00823 and 0.0095 and 0.00724 and 0.00602 | 0.0175 and 0.0293 and 0.0191 and 0.0122 and 0.0147 | 0.0115 and 0.059 and 0.0448 and 0.017 and 0.0239 | 0.0218 and 0.0596 and 0.0401 and 0.018 and 0.0426 | 0.0355 and 0.0389 and 0.0637 and 0.0227 and 0.0397 | 0.0309 and 0.0518 and 0.0337 and 0.0343 and 0.0443 | 0.018 and 0.039 and 0.0371 and 0.0238 and 0.0457 | 0.0163 and 0.0373 and 0.0236 and 0.0131 and 0.0446 | 0.00197 and 0.0253 and 0.00871 and 0.00772 and 0.0267 | 0.00413 and 0.00482 and 0 and 0.00225 and 0.0062 | microsomal CLint at 25 µM ([1]; RLMs of Control rats): 10.8 ± 0.4 µL/min/mg; microsomal CLint at 25 µM [1, 4]: 14.7 ± 0.23 µL/min/mg; microsomal CLint at 25 µM [1, 5]: 15.5 ± 0.46 µL/min/mg; microsomal CLint at 25 µM [1, 6]: 11.6 ± 0.4 µL/min/mg; microsomal CLint at 25 µM [1, 7]: 16.3 ± 0.61 µL/min/mg; half-life at 25 µM ([1]; t1/2, RLMs of Control rats): 4.28 ± 0.159 h; half-life at 25 µM [1, 28]: 3.15 ± 0.05 h; half-life at 25 µM [1, 29]: 2.99 ± 0.0877 h; half-life at 25 µM [1, 30]: 3.99 ± 0.138 h; half-life at 25 µM [1, 31]: 2.84 ± 0.108 h; Plasma concentration [2, 27]: 0 (4×) and 0.00207; metabolites produced in RLMs [3]: three metabolites (A1-A3) |
| CC(=O)N1CCN(c2ccc(OCC3COC(Cn4ccnc4)(c4ccc(Cl)cc4Cl)O3)cc2)CC1 (centres unmarked) [ketoconazole] |  |  |  |  |  |  |  |  |  |  |  |  |  |  |  |  |  |  |  |  | production of AC metabolite A1, difference vs control (CYP450; [32]): -0.2416 ± 0.0644; production of AC metabolite A2, difference vs control (CYP450; [32]): -0.4708 ± 0.02905; production of AC metabolite A3, difference vs control (CYP450; [32]): -0.4643 ± 0.06743; production of HA metabolite H2, difference vs control (CYP450; HA 90 min): -0.4161 ± 0.01634; production of HA metabolite H1, difference vs control (CYP450; HA 90 min, ketoconazole stock 0.04 mmol/L): -0.4482 ± 0.05543; production of MA metabolite M1, difference vs control (CYP450; [33]): -0.4085 ± 0.07279; production of MA metabolite M2, difference vs control (CYP450; [33]): -0.3312 ± 0.06126; production of MA metabolite M3, difference vs control (CYP450; [33]): -0.3905 ± 0.01824 |
